Data published in paper PMC11423305, “Structure-Based Design of CBP/EP300 Degraders: When Cooperativity Overcomes Affinity” (JACS Au, 2024).
Like-named read-outs stand apart in the source and are kept apart here.

Key:
[1] = molecular target: T1, CBP-BRD:CRBN thalidomide binding domain ternary complex (Homo sapiens, UniProt Q92793+Q96SW2); assay: TR-FRET CBP-BRD:PROTAC:CRBN ternary complex formation
T1 construct: GST-CBP (human, residues 1081-1197); the C-terminus of CRBN (human, residues 318-442); His6 with TEV cleavage site (N, cleaved yes); made in house; host or cells: Rosetta (DE3) cells (E. coli)
T1 sequence (Q92793 1081-1197): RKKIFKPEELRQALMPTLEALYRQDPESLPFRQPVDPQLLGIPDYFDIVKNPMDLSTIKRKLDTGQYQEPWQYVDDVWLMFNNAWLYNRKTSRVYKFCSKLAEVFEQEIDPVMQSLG
T1 sequence (Q96SW2 318-442): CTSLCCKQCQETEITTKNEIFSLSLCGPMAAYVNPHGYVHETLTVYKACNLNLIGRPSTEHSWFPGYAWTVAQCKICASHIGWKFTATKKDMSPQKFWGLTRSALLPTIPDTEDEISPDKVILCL
Description: (PMSF), and 1 mM EDTA) and lysed by sonication. The lysates were clarified by centrifugation (18,000 rpm, 4 °C, 1 h).
For GST-CBP the soluble proteins were loaded onto a column packed with glutathione sepharose 4B (GE Healthcare) and subsequently eluted with 10 mM reduced glutathione in buffer containing 20 mM Tris-HCl pH 8.0, and 150 mM NaCl. Finally, a size exclusion step (HiLoad 16/600 Superdex 200 pg column from GE Healthcare) was used to further purify the protein in buffer containing 50 mM HEPES pH 7.5 and 150 mM NaCl. For His-CRBN and His-CRBN-Avi(biotin), the soluble fractions were loaded onto the HisTrap FF crude column (GE Healthcare) and washed with lysis buffer supplemented with 50 mM imidazole. The proteins were eluted with a buffer containing 250 mM imidazole, 100 mM Tris-HCl pH 8.0 and 500 mM NaCl. For His-CRBN-Avi(biotin) only, recombinant TEV protease was used to cleave the His6-tag during overnight dialysis at 4 °C against buffer containing 100 mM Tris-HCl pH 8.0 and 500 mM NaCl. The dialyzed sample was passed through the HisTrap FF crude column to remove His6-tagged TEV protease and uncleaved protein. […]
The maximal control contained no PROTAC, the blank contained no SK-20 and no PROTAC – these were replaced by the appropriate buffer. […] The samples were incubated for 3 h (20 °C, dark) and the signal was detected using the Infinite M1000 plate reader (Tecan). After excitation at 317 nm, emission at 620 and 665 nm was recorded. […]
were determined according to the following equation:
activity (%) = ΔF ∗ 100 = F−Fb ∗ 100 , where Ft is the TR-FRET signal in the absence of any compound (maximal control, 100 % activity), Fb the TR-FRET signal in the absence of the GST -CBP (blank, 0 % activity) and F the TR -FRET signal in the presence of the compound. Dose -response curves were plotted in GraphPad Prism 10.2.3 and fitted with nonlinear regression “log(inhibitor) vs. normalized response – variable slope”, from which IC 50 values were determined. […]

[2] = molecular target: CRBN and CBP catalytic core (Homo sapiens, UniProt Q92793+Q96SW2); assay: FluoPPI cellular ternary complex formation, CBP catalytic core; assay type: cell-based; settings: U2OS cells, 6 h
Sequence of CRBN and CBP catalytic core (Q92793 1081-1700): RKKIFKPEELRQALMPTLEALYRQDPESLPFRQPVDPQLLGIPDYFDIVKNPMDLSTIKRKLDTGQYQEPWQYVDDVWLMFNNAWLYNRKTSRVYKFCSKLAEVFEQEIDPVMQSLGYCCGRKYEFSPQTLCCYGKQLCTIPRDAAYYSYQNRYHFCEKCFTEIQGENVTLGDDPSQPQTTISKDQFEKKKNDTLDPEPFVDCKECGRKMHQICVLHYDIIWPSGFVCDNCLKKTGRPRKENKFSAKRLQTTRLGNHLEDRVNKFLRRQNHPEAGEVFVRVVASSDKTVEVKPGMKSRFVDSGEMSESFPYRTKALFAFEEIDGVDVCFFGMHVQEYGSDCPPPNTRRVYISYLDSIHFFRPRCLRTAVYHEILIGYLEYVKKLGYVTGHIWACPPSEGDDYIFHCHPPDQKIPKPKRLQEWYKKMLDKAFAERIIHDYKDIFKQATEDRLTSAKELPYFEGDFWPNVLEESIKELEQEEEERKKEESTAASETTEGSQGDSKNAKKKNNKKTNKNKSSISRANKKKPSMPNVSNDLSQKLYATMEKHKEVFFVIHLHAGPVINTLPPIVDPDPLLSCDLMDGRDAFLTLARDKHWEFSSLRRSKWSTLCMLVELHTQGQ
Sequence of CRBN and CBP catalytic core (Q96SW2 whole entry, the tested form may be a part): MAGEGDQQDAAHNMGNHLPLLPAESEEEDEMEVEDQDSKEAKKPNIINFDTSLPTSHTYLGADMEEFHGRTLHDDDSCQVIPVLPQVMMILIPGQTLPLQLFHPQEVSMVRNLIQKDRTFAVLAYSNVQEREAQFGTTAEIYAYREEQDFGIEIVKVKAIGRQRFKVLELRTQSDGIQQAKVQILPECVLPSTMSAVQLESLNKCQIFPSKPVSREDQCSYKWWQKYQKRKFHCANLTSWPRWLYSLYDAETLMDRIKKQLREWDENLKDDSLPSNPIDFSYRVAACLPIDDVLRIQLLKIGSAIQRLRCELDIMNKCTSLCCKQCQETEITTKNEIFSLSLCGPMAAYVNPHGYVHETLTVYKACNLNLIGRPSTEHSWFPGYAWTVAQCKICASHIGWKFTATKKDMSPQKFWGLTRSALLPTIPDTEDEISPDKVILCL

CBP-BRD = CBP-BRD (Homo sapiens, UniProt Q92793); assay: TR-FRET competition with acetylated peptide binding to CBP-BRD, with and without CRBN (cooperativity); set-up: GST-CBP (human, residues 1081-1197); made in house; host or cells: Rosetta (DE3) cells (E. coli)

SMILES: Cc1cc2c(NC(=O)c3cc(NC(=O)CCCCCCCCCCNc4cccc5c4C(=O)N(C4CCC(=O)NC4=O)C5=O)cc(-c4ccn(C)n4)c3)cccc2nn1 (centres unmarked) [dCE-2]
- ternary complex formation (TR-FRET) ([1]; CBP-BRD and CRBN-thalidomide binding domain labeled with TR-FRET pair): robust formation of the ternary complex
- PROTAC concentration at peak of hook curve ([1]; TR-FRET ternary complex): around 1 μM
- ternary complex formation in cells with CBP catalytic core [2]: able to induce ternary complex formation
- IC50 (CBP-BRD; absence of CRBN, read-out: CBP-BRD IC50 (binary, IC50[control])): 0.15 µM
- IC50 (CBP-BRD; presence of high concentrations of CRBN C-terminal thalidomide binding domain, read-out: ternary IC50 (IC50[CRBN])): 0.045 µM
